Experimental findings from paper PMC9481570, “A small molecule antagonist of SMN disrupts the interaction between SMN and RNAP II” (Nature Communications, 2022) are described below.

One assay deals with R-loops in HEK293 cells. The assay can be described thus: Global nuclear R-loop immunofluorescence (S9.6 antibody). The settings on record: 20 μM, 72 h, S9.6 immunofluorescence. In kind it is cell-based, human. The protocol: Global nuclear R-loop detection was ascertained via immunofluorescence using the S9.6 antibody (Kerafast, ENH001)[58]. At 24 h prior to immunofluorescence, 40,000 cells were seeded on to Poly-L-Lysine (PLL) coated coverslips. Cells were fixed using 1% formaldehyde for 15 min, washed three times with PBS, permeabilized with 0.3% Triton X-100 and washed again three times with PBS. Coverslips were blocked using 5% BSA for 1 h at room temperature and transferred to humidified chambers for antibody incubations. Coverslips were incubated with 60 μL of monoclonal S9.6 antibody (Kerafast, ENH001, 1:500) for 1 h at room temperature. After washing with PBS, cells were incubated with a secondary goat anti-mouse Alexa Fluor 488 antibody (Thermo Fisher, A11001, 1:1000) for 1 h in a dark chamber. Following further washing and DAPI staining, coverslips were mounted onto microscope slides using DAKO fluorescent mounting medium (Agilent, S302380-2) and then sealed with nail polish. […] The coverslips were processed for immunofluorescence 24 h later using the primary antibodies monoclonal S9.6 (Kerafast, ENH001, 1:500), or polyclonal anti-RNase H1 (Proteintech, 15606-1-AP, 1:500) and the secondary antibodies goat anti-mouse Alexa Fluor 488 (Thermo Fisher, A11001, 1:1000) or goat anti-rabbit Alexa Fluor 568 (Thermo Fisher, A11011, 1:1000) to quantify R-loop and confirm RNase H1 overexpression, respectively. […]

Another assay addresses T1, SMN-POLR2A interaction (Homo sapiens, UniProt Q16637).
T1 construct: endogenous in cells; host or cells: HEK293
Description: Coimmunoprecipitation of POLR2A with SMN in HEK293 cells. Format: cell-based. The note with it: 72 h; for inhibition of the interaction between SMN and POLR2A: 20 µM; for coimmunoprecipitation of POLR2A with SMN: series of concentrations. As to the method:
HEK293 cells (ATCC, CRL-1573) were grown in DMEM (SLRI media facility) plus 10% FBS (Sigma, F1051). For analysis of SMN chemical antagonists, HEK293 cells were treated with DMSO or a series of concentrations (0, 2, 6, 10, 20, 30, 40, and 80 μM) of compound 1, compound 2 or negative compound 15 for 72 h. CRISPR-mediated SMN1 gene knockout was performed according to our previous study. Briefly, 2 μg of CRISPR/Cas9 plasmid (pCMV-Cas9-GFP), which expresses scrambled guide RNA, or guide RNA that targets the SMN1 gene exon1 (gRNA target sequence: […]) or exon3 (gRNA target sequence: […]) was transfected into HEK293 cells. Cells were sorted by BD FACSAria flow cytometry at Donnelly Center, University of Toronto 24 h after transfection, and single GFP-positive cells were seeded into a 48-well plate. The expression levels of SMN in each clone were detected by immunofluorescence. The transfection of GFP-RNase H1 R-loop-binding domain (GFP-HB) for R-loop detection into HEK293 cells was performed with the FuGENE Transfection reagent (Roche, E269A).
The experiments were performed following procedure as previously described with minor modifications. […] The supernatant cell lysates were sonicated with five on and off cycles of 0.3 s/0.7 s per mL and incubated for 30 min at 4 °C with 12.5–25 units/mL benzonase nuclease (Sigma, E1014) to remove RNA and DNA, followed by centrifugation at 18,400 × g for 30 min at 4 °C. The supernatant cell lysates were incubated with 2 μg of antibody overnight at 4 °C, followed by the addition of 20 μL of Dynabeads Protein G beads (Invitrogen, 10004D) for an additional incubation for 4 h. After washing with low-salt buffer (10 mM Tris-HCl, pH 7.9, 100 mM NaCl, and 0.1% Nonidet P-40) 3 times, 10 min/time, associated proteins were eluted into protein-loading buffer and separated by Tris 4–20% SDS-polyacrylamide (Mini-PROTEAN TGX Precast Protein Gel, BioRad, 4561096), and transferred to nitrocellulose or PVDF membranes (Immu-Blot PVDF, BioRad, 1620112 or 1620177). Transferred samples were immunoblotted with primary antibodies (POLR2A, Abcam, ab5408, monoclonal antibody, clone No. 4H8; SMN, Santa Cruz Biotechnology, sc-15320, polyclonal antibody; ACTB, Sigma, A5441, monoclonal antibody, clone No. AC-15; GFP, Invitrogen, G10362, rabbit monoclonal antibody; TUBB, Santa Cruz Biotechnology, sc-9104, polyclonal antibody) at a dilution of 1:2000 to 1:5000, followed by horseradish peroxidase-conjugated goat anti-mouse or mouse anti-rabbit secondary antibody (Jackson Immuno Research, 115-035-174 or 211-032-171) at a dilution of 1:10,000. Western blot detection was performed with enhanced chemiluminescence (Pierce ECL Western Blotting Substrate, Thermo Fisher, 32209). […]

T1 sequence (Q16637 2-294 limits assumed): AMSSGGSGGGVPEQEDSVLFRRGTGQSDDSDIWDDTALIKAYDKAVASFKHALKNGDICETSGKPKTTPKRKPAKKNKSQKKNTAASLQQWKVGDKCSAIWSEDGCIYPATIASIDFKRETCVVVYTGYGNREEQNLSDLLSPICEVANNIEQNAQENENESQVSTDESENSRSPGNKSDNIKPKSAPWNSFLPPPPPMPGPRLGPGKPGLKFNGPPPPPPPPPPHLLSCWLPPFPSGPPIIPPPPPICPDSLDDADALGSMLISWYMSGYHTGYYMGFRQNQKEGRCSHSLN

For `Cn1c2c(c(=N)c3c1CCC3)CCC2` [Compound 1, 4-methyl-2,3,4,5,6,7-hexahydrodicyclopenta[b,e]pyridin-8(1H)-imine], the “global nuclear R-loop levels in comparison to the DMSO controls” value with R-loops in HEK293 cells is reported as “significantly increased”. On SMN-POLR2A interaction, the “inhibition of the interaction between SMN and POLR2A” value is recorded as “significant inhibition”; the “coimmunoprecipitation of POLR2A with SMN” value is reported as “disrupted”.
For `CCCn1c2c(c(=N)c3c1CCC3)CCC2` [Compound 2, 4-propyl-2,3,4,5,6,7-hexahydrodicyclopenta[b,e]pyridin-8(1H)-imine], in that order: “significantly increased”, “significant inhibition” and “disrupted”.
